Data on 7 molecules can be found in ChEMBL document CHEMBL5346973 (J Med Chem, 2023).

Each structure is given as a SMILES string. Where a SMILES comes first, the peptide text is derived from it.

One may read the IC50 as the point on the concentration scale where inhibition reaches its midpoint.

Nicotinic acetylcholine receptor alpha9/alpha10, sequence (P43144 whole entry): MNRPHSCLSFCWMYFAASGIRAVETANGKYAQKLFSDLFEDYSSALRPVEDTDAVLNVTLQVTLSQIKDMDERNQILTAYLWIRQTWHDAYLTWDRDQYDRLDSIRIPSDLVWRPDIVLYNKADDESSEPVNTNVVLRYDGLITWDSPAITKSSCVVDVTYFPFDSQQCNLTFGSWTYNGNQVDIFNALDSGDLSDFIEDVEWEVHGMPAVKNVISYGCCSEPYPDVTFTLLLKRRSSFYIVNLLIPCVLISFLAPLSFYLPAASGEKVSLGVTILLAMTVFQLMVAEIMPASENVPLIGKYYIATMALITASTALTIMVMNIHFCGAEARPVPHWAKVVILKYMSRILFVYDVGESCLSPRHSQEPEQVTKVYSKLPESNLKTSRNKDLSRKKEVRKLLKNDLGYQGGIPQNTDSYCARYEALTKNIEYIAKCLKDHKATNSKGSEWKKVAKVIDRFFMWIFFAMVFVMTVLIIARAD
Nicotinic acetylcholine receptor alpha9/alpha10, sequence (Q9JLB5 whole entry): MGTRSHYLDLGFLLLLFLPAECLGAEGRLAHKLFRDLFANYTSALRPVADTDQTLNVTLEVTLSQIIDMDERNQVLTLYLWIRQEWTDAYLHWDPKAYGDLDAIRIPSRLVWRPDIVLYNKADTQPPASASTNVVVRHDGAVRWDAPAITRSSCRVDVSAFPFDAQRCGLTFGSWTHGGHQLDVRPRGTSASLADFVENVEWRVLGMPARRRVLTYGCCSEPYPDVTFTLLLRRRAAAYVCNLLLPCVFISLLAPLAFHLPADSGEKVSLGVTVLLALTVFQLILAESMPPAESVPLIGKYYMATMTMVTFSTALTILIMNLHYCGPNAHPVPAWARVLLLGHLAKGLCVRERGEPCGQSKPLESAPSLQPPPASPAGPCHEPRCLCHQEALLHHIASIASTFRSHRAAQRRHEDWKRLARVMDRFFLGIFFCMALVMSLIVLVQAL

This assay concerns the target Nicotinic acetylcholine receptor alpha9/alpha10 (Rattus norvegicus, UniProt P43144+Q9JLB5). Briefly: Antagonist activity at rat alpha9alpha10 nACh receptor expressed in Xenopus oocyte assessed as inhibition of acetylcholine-induced response at -70 mV holding potential by voltage-clamp based electrophysiological assay. Format: cell-based.
Turning to `CC[C@H](C)[C@@H]1NC(=O)[C@H](CCCNC(=N)N)NC(=O)[C@H](CCCNC(=N)N)NC(=O)[C@@H](NC(=O)[C@H](Cc2ccc(O)cc2)NC(=O)[C@H](CCCNC(=N)N)NC(=O)[C@H](CCCNC(=N)N)NC(=O)[C@H](C)NC(=O)[C@H](C)NC(=O)[C@H](CC(=O)O)NC(=O)[C@H](Cc2ccc(O)cc2)NC(=O)[C@@H]2CCCN2C(=O)[C@H](CO)NC(=O)[C@H](CCCNC(=N)N)NC(=O)[C@@H]2CSSC[C@H](NC(=O)[C@@H](N)[C@@H](C)O)C(=O)N[C@@H](CCCNC(=N)N)C(=O)N[C@@H](CO)C(=O)N[C@@H](CO)C(=O)NCC(=O)N[C@@H](CCCNC(=N)N)C(=O)N[C@@H](Cc3ccc(O)cc3)C(=O)N2)CSSC[C@@H](C(=O)N[C@H](C(=O)O)C(C)C)NC(=O)[C@H](C)NC(=O)[C@H](CC(=O)O)NC(=O)[C@H]([C@@H](C)O)NC1=O`, the IC50 is 260 nM. The value for `CC[C@H](C)[C@@H]1NC(=O)[C@H](CCCNC(=N)N)NC(=O)[C@H](CCCNC(=N)N)NC(=O)[C@@H](NC(=O)[C@H](Cc2ccc(O)cc2)NC(=O)[C@H](CCCNC(=N)N)NC(=O)[C@H](CCCNC(=N)N)NC(=O)[C@H](CCCNC(=N)N)NC(=O)[C@H](CCCNC(=N)N)NC(=O)[C@H](CC(=O)O)NC(=O)[C@H](Cc2ccc(O)cc2)NC(=O)[C@@H]2CCCN2C(=O)[C@H](CO)NC(=O)[C@H](CCCNC(=N)N)NC(=O)[C@@H]2CSSC[C@H](NC(=O)[C@@H](N)[C@@H](C)O)C(=O)N[C@@H](C)C(=O)N[C@@H](CO)C(=O)N[C@@H](CO)C(=O)NCC(=O)N[C@@H](C)C(=O)N[C@@H](Cc3ccc(O)cc3)C(=O)N2)CSSC[C@@H](C(=O)N[C@H](C(=O)O)C(C)C)NC(=O)[C@H](C)NC(=O)[C@H](CC(=O)O)NC(=O)[C@H]([C@@H](C)O)NC1=O` (HELM PEPTIDE1{T.C.A.S.S.G.A.Y.C.R.S.P.Y.D.R.R.R.R.Y.C.R.R.I.T.D.A.C.V}$PEPTIDE1,PEPTIDE1,2:R3-9:R3|PEPTIDE1,PEPTIDE1,20:R3-27:R3$$$V2.0) was 370 nM; that for `CC[C@H](C)[C@@H]1NC(=O)[C@H](CCCNC(=N)N)NC(=O)[C@H](CCCNC(=N)N)NC(=O)[C@@H](NC(=O)[C@H](Cc2ccc(O)cc2)NC(=O)[C@H](C)NC(=O)[C@H](CCCNC(=N)N)NC(=O)[C@H](CCCNC(=N)N)NC(=O)[C@H](C)NC(=O)[C@H](CC(=O)O)NC(=O)[C@H](Cc2ccc(O)cc2)NC(=O)[C@@H]2CCCN2C(=O)[C@H](CO)NC(=O)[C@H](CCCNC(=N)N)NC(=O)[C@@H]2CSSC[C@H](NC(=O)[C@@H](N)[C@@H](C)O)C(=O)N[C@@H](CCCNC(=N)N)C(=O)N[C@@H](CO)C(=O)N[C@@H](CO)C(=O)NCC(=O)N[C@@H](CCCNC(=N)N)C(=O)N[C@@H](Cc3ccc(O)cc3)C(=O)N2)CSSC[C@@H](C(=O)N[C@H](C(=O)O)C(C)C)NC(=O)[C@H](C)NC(=O)[C@H](CC(=O)O)NC(=O)[C@H]([C@@H](C)O)NC1=O` was 350 nM. Turning to `CC[C@H](C)[C@@H]1NC(=O)[C@H](CCCNC(=N)N)NC(=O)[C@H](CCCNC(=N)N)NC(=O)[C@@H](NC(=O)[C@H](Cc2ccc(O)cc2)NC(=O)[C@H](CCCNC(=N)N)NC(=O)[C@H](CCCNC(=N)N)NC(=O)[C@H](CCCNC(=N)N)NC(=O)[C@H](CCCNC(=N)N)NC(=O)[C@H](CC(=O)O)NC(=O)[C@H](Cc2ccc(O)cc2)NC(=O)[C@@H]2CCCN2C(=O)[C@H](CO)NC(=O)[C@H](C)NC(=O)[C@@H]2CSSC[C@H](NC(=O)[C@@H](N)[C@@H](C)O)C(=O)N[C@@H](CCCNC(=N)N)C(=O)N[C@@H](CO)C(=O)N[C@@H](CO)C(=O)NCC(=O)N[C@@H](C)C(=O)N[C@@H](Cc3ccc(O)cc3)C(=O)N2)CSSC[C@@H](C(=O)N[C@H](C(=O)O)C(C)C)NC(=O)[C@H](C)NC(=O)[C@H](CC(=O)O)NC(=O)[C@H]([C@@H](C)O)NC1=O` (HELM PEPTIDE1{T.C.R.S.S.G.A.Y.C.A.S.P.Y.D.R.R.R.R.Y.C.R.R.I.T.D.A.C.V}$PEPTIDE1,PEPTIDE1,2:R3-9:R3|PEPTIDE1,PEPTIDE1,20:R3-27:R3$$$V2.0), the IC50 stood at 440 nM.

Take `CC[C@H](C)[C@@H]1NC(=O)[C@H](CCCNC(=N)N)NC(=O)[C@H](CCCNC(=N)N)NC(=O)[C@@H](NC(=O)[C@H](Cc2ccc(O)cc2)NC(=O)[C@H](C)NC(=O)[C@H](C)NC(=O)[C@H](CCCNC(=N)N)NC(=O)[C@H](CCCNC(=N)N)NC(=O)[C@H](CC(=O)O)NC(=O)[C@H](Cc2ccc(O)cc2)NC(=O)[C@@H]2CCCN2C(=O)[C@H](CO)NC(=O)[C@H](CCCNC(=N)N)NC(=O)[C@@H]2CSSC[C@H](NC(=O)[C@@H](N)[C@@H](C)O)C(=O)N[C@@H](CCCNC(=N)N)C(=O)N[C@@H](CO)C(=O)N[C@@H](CO)C(=O)NCC(=O)N[C@@H](CCCNC(=N)N)C(=O)N[C@@H](Cc3ccc(O)cc3)C(=O)N2)CSSC[C@@H](C(=O)N[C@H](C(=O)O)C(C)C)NC(=O)[C@H](C)NC(=O)[C@H](CC(=O)O)NC(=O)[C@H]([C@@H](C)O)NC1=O`: the IC50 was determined as 230 nM. The figure for `CC[C@H](C)[C@@H]1NC(=O)[C@H](CCCNC(=N)N)NC(=O)[C@H](CCCNC(=N)N)NC(=O)[C@@H](NC(=O)[C@H](Cc2ccc(O)cc2)NC(=O)[C@H](C)NC(=O)[C@H](CCCNC(=N)N)NC(=O)[C@H](C)NC(=O)[C@H](CCCNC(=N)N)NC(=O)[C@H](CC(=O)O)NC(=O)[C@H](Cc2ccc(O)cc2)NC(=O)[C@@H]2CCCN2C(=O)[C@H](CO)NC(=O)[C@H](CCCNC(=N)N)NC(=O)[C@@H]2CSSC[C@H](NC(=O)[C@@H](N)[C@@H](C)O)C(=O)N[C@@H](CCCNC(=N)N)C(=O)N[C@@H](CO)C(=O)N[C@@H](CO)C(=O)NCC(=O)N[C@@H](CCCNC(=N)N)C(=O)N[C@@H](Cc3ccc(O)cc3)C(=O)N2)CSSC[C@@H](C(=O)N[C@H](C(=O)O)C(C)C)NC(=O)[C@H](C)NC(=O)[C@H](CC(=O)O)NC(=O)[C@H]([C@@H](C)O)NC1=O` is 410 nM; for `CC[C@H](C)[C@@H]1NC(=O)[C@H](CCCNC(=N)N)NC(=O)[C@H](CCCNC(=N)N)NC(=O)[C@@H](NC(=O)[C@H](Cc2ccc(O)cc2)NC(=O)[C@H](CCCNC(=N)N)NC(=O)[C@H](CCCNC(=N)N)NC(=O)[C@H](CCCNC(=N)N)NC(=O)[C@H](CCCNC(=N)N)NC(=O)[C@H](CC(=O)O)NC(=O)[C@H](Cc2ccc(O)cc2)NC(=O)[C@@H]2CCCN2C(=O)[C@H](CO)NC(=O)[C@H](C)NC(=O)[C@@H]2CSSC[C@H](NC(=O)[C@@H](N)[C@@H](C)O)C(=O)N[C@@H](C)C(=O)N[C@@H](CO)C(=O)N[C@@H](CO)C(=O)NCC(=O)N[C@@H](CCCNC(=N)N)C(=O)N[C@@H](Cc3ccc(O)cc3)C(=O)N2)CSSC[C@@H](C(=O)N[C@H](C(=O)O)C(C)C)NC(=O)[C@H](C)NC(=O)[C@H](CC(=O)O)NC(=O)[C@H]([C@@H](C)O)NC1=O` (HELM PEPTIDE1{T.C.A.S.S.G.R.Y.C.A.S.P.Y.D.R.R.R.R.Y.C.R.R.I.T.D.A.C.V}$PEPTIDE1,PEPTIDE1,2:R3-9:R3|PEPTIDE1,PEPTIDE1,20:R3-27:R3$$$V2.0) it is 590 nM.
